In PubChem BioAssay AID1963875 (Molecular Pharmacology Branch, DTP, NCI, 2024):
Where “and” joins values, the source holds several entries; their conditions need not be identical. Identical values can stand only once.

Tested on: KRAS-mutant PDC complex spheroid viability
Assay: Anticancer human tumor 186277-243-T-J2-PDC patient-derived colon adenocarcinoma cell line growth inhibition [KRAS2]
Conditions: for viability, T/C: stronger effect = lower value
Text: Multicellular complex tumor spheroid response to RAS pathway inhibitors in combination with a targeted agents in patient-derived cell lines with oncogenic KRAS variants from multiple cancer types
A high-throughput screen of multi-cell type tumor spheroids was designed to identify active combinations of targeted small molecules and KRAS pathway inhibitors. Complex spheroids include a stromal component modeled by human endothelial cells (HUVEC) and fibroblasts modeled by human mesenchymal stem cells (MSCs). The concentration ranges selected for each drug and investigational agent were based upon clinically achievable concentrations if the clinical Cmax of the agent was known.
Compounds. The drugs and investigational agents: BI-3406 (NSC825286), BAY-293 (NSC824723), batoprotafib (TNO155; NSC825523), sotorasib (AMG 510; NSC818433), MRTX1257 (NSC819558), elimusertib (BAY 1895344; NSC800525), molibresib (GSK525762; NSC774829), temuterkib (LY3214996; NSC803410), venetoclax (NSC766270), alisertib (NSC759677), olaparib (NSC753686), talazoparib (NSC767125), erdafitinib (NSC781556), ipatasertib (NSC767898), cabozantinib (NSC761068), nintedanib (NSC756659), abemaciclib (NSC768073), docetaxel (NSC628503), trametinib (NSC758246), and sapanisertib (NSC764658) were obtained from the National Cancer Institute (NCI) Developmental Therapeutics Program Chemical Repository. The FDA-approved anticancer drug set is available from the Developmental Therapeutics Program. […] The stock solutions were prepared in dimethyl sulfoxide (DMSO, Sigma-Aldrich, St. Louis, MO, cat. D2650) at 800-fold the tested concentration and stored at -70 degrees C prior to their use. All drugs and investigational agents were tested over a range starting from a high concentration at or near the clinical Cmax and decreasing in half-log increments. If the clinical Cmax for an agent had not been determined, the highest concentration tested was 10 microM.
Cell Culture. All cells were maintained in an incubator at 37 degrees C and 5% CO2 with 95% humidity. The PDC lines were cultured according to standard operating procedures established by the NCI PDMR (https://pdmr.cancer.gov/sops/default.htm). Briefly, all PDCs were thawed and cultured in Matrigel-coated flasks prepared with a working solution of 1X Ham's F-12 nutrient mix, without supplementation (Invitrogen, Waltham, MA, cat. 11765054), 100 U/mL penicillin-streptomycin (Invitrogen, cat. 15140122), and 2.5% Matrigel (Corning Inc., Corning, NY, cat. 354248) for the first three passages. All PDCs were cultured in complete DMEM/F-12 media containing advanced DMEM/F-12 (Invitrogen, cat. 12634028), 4.9% defined fetal bovine serum, heat inactivated (HyClone Laboratories Inc., Logan, UT, cat. SH30070.03HI), 389 ng/mL hydrocortisone (Sigma-Aldrich, cat. H4001), 9.7 ng/mL human EGF recombinant protein (Invitrogen, cat. PHG0313), 23.4 microg/mL adenine (Sigma-Aldrich, cat. A2786), 97.3 U/mL penicillin-streptomycin (Invitrogen, cat. 15140122), 1.9 mM L-glutamine (Invitrogen, cat. 25030081), and 9.7 microM Y-27632 dihydrochloride (Tocris Bioscience, Bristol, United Kingdom, cat. 1254). The PDCs were cultured in complete DMEM/F12 media without 9.7 microM Y-27632 dihydrochloride for at least two passages prior to the screen. The established cell line HOP-62 was cultured in RPMI 1640 medium, HEPES (Invitrogen, cat. 22400105) with 10% defined fetal bovine serum (HyClone Laboratories Inc., cat. SH30070.03) and 2 mM L-glutamine (Invitrogen, cat. 25030081). The pooled donor HUVEC were cultured in endothelial cell growth medium 2 (PromoCell, Heidelberg, Germany, cat. C-22011) and the hMSC were cultured in mesenchymal stem cell growth medium 2 (PromoCell, cat. C-28009). For all experiments, HUVEC and hMSC were used at passages </=5, while the malignant cell lines were used at passages </=15. […]

[1] = curve of first compound, second compound 0.1 µM
[2] = curve of first compound, second compound 0.316 µM
[3] = curve of first compound, second compound 1 µM
[4] = curve of first compound, second compound 3.16 µM
[5] = curve of first compound, second compound 10 µM
[6] = second compound 0.1 µM, first compound 0.0316 µM
[7] = second compound 0.1 µM, first compound 0.1 µM
[8] = second compound 0.1 µM, first compound 0.316 µM
[9] = second compound 0.1 µM, first compound 1 µM
[10] = second compound 0.1 µM, first compound 3.16 µM
[11] = second compound 0.316 µM, first compound 0.0316 µM
[12] = second compound 0.316 µM, first compound 0.1 µM
[13] = second compound 0.316 µM, first compound 0.316 µM
[14] = second compound 0.316 µM, first compound 1 µM
[15] = second compound 0.316 µM, first compound 3.16 µM
[16] = second compound 1 µM, first compound 0.0316 µM
[17] = second compound 1 µM, first compound 0.1 µM
[18] = second compound 1 µM, first compound 0.316 µM
[19] = second compound 1 µM, first compound 1 µM
[20] = second compound 1 µM, first compound 3.16 µM
[21] = second compound 3.16 µM, first compound 0.0316 µM
[22] = second compound 3.16 µM, first compound 0.1 µM
[23] = second compound 3.16 µM, first compound 0.316 µM
[24] = second compound 3.16 µM, first compound 1 µM
[25] = second compound 3.16 µM, first compound 3.16 µM
[26] = second compound 10 µM, first compound 0.0316 µM
[27] = second compound 10 µM, first compound 0.1 µM
[28] = second compound 10 µM, first compound 0.316 µM
[29] = second compound 10 µM, first compound 1 µM
[30] = second compound 10 µM, first compound 3.16 µM
[31] = second compound 0.1 µM, first compound 0.01 µM
[32] = second compound 0.316 µM, first compound 0.01 µM
[33] = second compound 1 µM, first compound 0.01 µM
[34] = second compound 3.16 µM, first compound 0.01 µM
[35] = second compound 10 µM, first compound 0.01 µM
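For viability, T/C in this document: viability read after seven days of compound exposure; 100% = DMSO vehicle-treated spheroids so lower means less viable.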

CC1(C)CCC(CN2CCN(c3ccc(C(=O)NS(=O)(=O)c4ccc(NCC5CCOCC5)c([N+](=O)[O-])c4)c(Oc4cnc5[nH]ccc5c4)c3)CC2)=C(c2ccc(Cl)cc2)C1 + COc1cc2nc(C)nc(NC(C)c3cc(N)cc(C(F)(F)F)c3)c2cc1OC1CCOC1
IC50 [1]: 2190 nM
IC50 [2]: 2070 nM
IC50 [3]: 1980 nM
IC50 [4]: 2070 nM
IC50 [5]: 472 nM
viability, T/C [6]: 102%
viability, T/C [7]: 99.2%
viability, T/C [8]: 108%
viability, T/C [9]: 99.7%
viability, T/C [10]: 26.4%
viability, T/C (second compound 0.1 µM, first compound 10 µM): 0.68%
viability, T/C [11]: 92.5%
viability, T/C [12]: 107%
viability, T/C [13]: 104%
viability, T/C [14]: 103%
viability, T/C [15]: 19.9%
viability, T/C (second compound 0.316 µM, first compound 10 µM): 0.6%
viability, T/C [16]: 104%
viability, T/C [17]: 108%
viability, T/C [18]: 110%
viability, T/C [19]: 100%
viability, T/C [20]: 15.7%
viability, T/C (second compound 1 µM, first compound 10 µM): 1.19%
viability, T/C [21]: 106%
viability, T/C [22]: 103%
viability, T/C [23]: 111%
viability, T/C [24]: 115%
viability, T/C [25]: 15.6%
viability, T/C (second compound 3.16 µM, first compound 10 µM): 1.05%
viability, T/C [26]: 77.3%
viability, T/C [27]: 91.8%
viability, T/C [28]: 53.2%
viability, T/C [29]: 33.6%
viability, T/C [30]: 5.28%
viability, T/C (second compound 10 µM, first compound 10 µM): 0.64%

CC(=O)Nc1cccc(-n2c(=O)n(C3CC3)c(=O)c3c(Nc4ccc(I)cc4F)n(C)c(=O)c(C)c32)c1 + CC1OCC2(CCN(c3cnc(Sc4ccnc(N)c4Cl)c(N)n3)CC2)C1N
IC50 [1]: 0.368 nM
IC50 [2]: 0.199 nM
IC50 [3]: 0.128 nM
IC50 [4]: < 0.1 nM
IC50 [5]: < 0.1 nM
viability, T/C (second compound 0.1 µM, first compound 0.0001 µM): 116%
viability, T/C (second compound 0.1 µM, first compound 0.000316 µM): 56.1%
viability, T/C (second compound 0.1 µM, first compound 0.001 µM): 9.68%
viability, T/C (second compound 0.1 µM, first compound 0.00316 µM): 5%
viability, T/C [31]: 1.6%
viability, T/C [6]: 1.06%
viability, T/C (second compound 0.316 µM, first compound 0.0001 µM): 86.3%
viability, T/C (second compound 0.316 µM, first compound 0.000316 µM): 25.9%
viability, T/C (second compound 0.316 µM, first compound 0.001 µM): 5.13%
viability, T/C (second compound 0.316 µM, first compound 0.00316 µM): 3.78%
viability, T/C [32]: 3.34%
viability, T/C [11]: 0.76%
viability, T/C (second compound 1 µM, first compound 0.0001 µM): 60.8%
viability, T/C (second compound 1 µM, first compound 0.000316 µM): 10.9%
viability, T/C (second compound 1 µM, first compound 0.001 µM): 4.8%
viability, T/C (second compound 1 µM, first compound 0.00316 µM): 1.82%
viability, T/C [33]: 0.88%
viability, T/C [16]: 0.76%
viability, T/C (second compound 3.16 µM, first compound 0.0001 µM): 24.4%
viability, T/C (second compound 3.16 µM, first compound 0.000316 µM): 5.11%
viability, T/C (second compound 3.16 µM, first compound 0.001 µM): 2.57%
viability, T/C (second compound 3.16 µM, first compound 0.00316 µM): 1.18%
viability, T/C [34]: 0.59%
viability, T/C [21]: 0.6%
viability, T/C (second compound 10 µM, first compound 0.0001 µM): 10%
viability, T/C (second compound 10 µM, first compound 0.000316 µM): 3.24%
viability, T/C (second compound 10 µM, first compound 0.001 µM): 1.99%
viability, T/C (second compound 10 µM, first compound 0.00316 µM): 0.72%
viability, T/C [35]: 0.68%
viability, T/C [26]: 0.55%

CC(=O)OC12COC1CC(O)C1(C)C(=O)C(O)C3=C(C)C(OC(=O)C(O)C(NC(=O)OC(C)(C)C)c4ccccc4)CC(O)(C(OC(=O)c4ccccc4)C21)C3(C)C (stereo unspecified) + COc1cc2nc(C)nc(NC(C)c3cc(N)cc(C(F)(F)F)c3)c2cc1OC1CCOC1
IC50 [1]: < 10 nM
IC50 [2]: < 10 nM
IC50 [3]: < 10 nM
IC50 [4]: < 10 nM
IC50 [5]: < 10 nM
viability, T/C [31]: 4.45%
viability, T/C [6]: 5.2%
viability, T/C [7]: 2.78%
viability, T/C [8]: 2.85%
viability, T/C [9]: 2.91%
viability, T/C [10]: 3.62%
viability, T/C [32]: 4.29%
viability, T/C [11]: 3.35%
viability, T/C [12]: 2.81%
viability, T/C [13]: 2.36%
viability, T/C [14]: 2.72%
viability, T/C [15]: 2.69%
viability, T/C [33]: 3.08%
viability, T/C [16]: 4.27%
viability, T/C [17]: 3.44%
viability, T/C [18]: 3.47%
viability, T/C [19]: 3.46%
viability, T/C [20]: 2.96%
viability, T/C [34]: 3.01%
viability, T/C [21]: 2.78%
viability, T/C [22]: 2.73%
viability, T/C [23]: 2.51%
viability, T/C [24]: 2.54%
viability, T/C [25]: 2.73%
viability, T/C [35]: 3.2%
viability, T/C [26]: 3.03%
viability, T/C [27]: 2.84%
viability, T/C [28]: 3%
viability, T/C [29]: 2.42%
viability, T/C [30]: 2.82%

CCN1CCN(Cc2ccc(Nc3ncc(F)c(-c4cc(F)c5nc(C)n(C(C)C)c5c4)n3)nc2)CC1
viability, T/C (compound 0.00316 µM): 98.8% [middle of 4 runs]
viability, T/C (compound 0.01 µM): 98.5% [middle of 4 runs]
viability, T/C (compound 0.0316 µM): 107% [middle of 4 runs]
viability, T/C (compound 0.1 µM): 112% (2×) and 136% and 113%
viability, T/C (compound 1 µM): 101% [middle of 4 runs]
IC50 (curve of compound): > 1000 nM
